Measured values published in patent publication US10207989B2, “Substituted alkyl diaryl derivatives, methods of preparation and uses” (TEMPLE UNIVERSITY—OF THE COMMONWEALTH SYSTEM OF HIGHER …, priority 2012, dated 2019).

Key:
[1] = system: K562 (chronic myelogenous leukemia; leukemia cell line +ve for Bcr-Abl); assay: Cancer cell assay, tumor cells K562; format: cell-based; settings: Homo sapiens, compound in DMSO 0.01 μM to 100 μM, examined 96 hours later, viable cells by trypan blue exclusion
Experimental: (§1) The effect of the compounds of the invention on tumor cells was determined by the assay described by Latham et al., Oncogene 12:827-837 (1996). Tumor cells K562 (chronic myelogenous leukemia; leukemia cell line +ve for Bcr-Abl) or DU145 (prostate cancer) were plated in 12-well dishes at a cell density of 2.5×10^4 cells well. The plated cells were treated 24 hours later with a compound of the invention dissolved in DMSO at multiple concentrations ranging from 0.01 μM to 100 μM. The plates were examined 96 hours later under an inverted microscope, Olympus CK-2 using a 10× objective, and compound activity was noted by physical observation. When necessary, the total number of viable cells was determined by trypsinizing the wells and counting the number of viable cells, as determined by trypan blue exclusion, using a hemacytometer.

[2] = system: DU145 (prostate cancer); assay: Cancer cell assay, tumor cells DU145; format: cell-based; settings: Homo sapiens, examined 96 hours later, viable cells by trypan blue exclusion
Experimental: as §1

[3] = DU-145, compound in DMSO 0.01 μM to 100 μM

| IC50 [1] | IC50 [2, 3] | melting point | SMILES | IC50 ([1]; K562, 96 h) | IC50 ([2]; DU-145, 96 h, compound in DMSO 0.01 μM to 100 μM) |
| --- | --- | --- | --- | --- | --- |
| 1.5 µM | 1.5 µM | 142 to 144 °C | O=S(=O)(CCc1ccc(F)cc1)Cc1ccc(Cl)cc1 [Example 2, 1-Chloro-4-(((4-fluorophenethyl)sulfonyl)methyl)benzene] |  |  |
| 0.0025 µM | 0.003 µM | 128 to 130 °C | COc1cc(OC)c(CCS(=O)(=O)Cc2ccc(OC)c(N)c2)c(OC)c1 [Example 3, 2-Methoxy-5-(((2,4,6-trimethoxyphenethyl)sulfonyl)methyl)aniline] |  |  |
| 0.003 µM | 0.0075 µM | 136 to 138 °C | COc1cc(OC)c(CCS(=O)(=O)Cc2ccc(OC)c(O)c2)c(OC)c1 [Example 5, 2-Methoxy-5-(((2,4,6-trimethoxyphenethyl)sulfonyl)methyl)phenol] |  |  |
| 10 µM | 10 µM | 265 to 267 °C | O=C(O)c1ccc(CCS(=O)(=O)Cc2ccc(Cl)cc2)cc1 [Example 6, 4-(2-((4-Chlorobenzyl)sulfonyl)ethyl)benzoic acid] |  |  |
| 0.15 µM | 5 µM |  | COc1cc(OC)c(CCC(=O)Nc2ccc(OC)c(N)c2)c(OC)c1 [Example 7, N-(3-Amino-4-methoxyphenyl)-3-(2,4,6-trimethoxyphenyl)propanamide] |  |  |
| 0.15 µM | 0.15 µM |  | COC(=O)CNc1cc(CS(=O)(=O)CCc2c(OC)cc(OC)cc2OC)ccc1OC [Example 8] |  |  |
| 2 µM | 2 µM | 86 to 88 °C | COC(=O)CN(CC(=O)OC)c1cc(CS(=O)(=O)CCc2c(OC)cc(OC)cc2OC)ccc1OC [Example 9, Dimethyl 2,2′-((2-methoxy-5-(((2,4,6-trimethoxyphenethyl)sulfonyl)methyl)phenyl)azanediyl)diacetate] |  |  |
| 0.003 µM | 0.005 µM |  | COc1cc(OC)c(CCS(=O)(=O)Nc2ccc(OC)c(N)c2)c(OC)c1 [Example 19, N-(3-Amino-4-methoxyphenyl)-2-(2,4,6-trimethoxyphenyl)ethanesulfonamide] |  |  |
| 0.05 µM | 0.15 µM |  | COc1ccc(CS(=O)(=O)CCc2c(OC)cc(OC)cc2OC)cc1 [Example 20, 1,3,5-Trimethoxy-2-(2-((4-methoxybenzyl)sulfonyl)ethyl)benzene] |  |  |
|  |  |  | COc1cc(OC)c(CCS(=O)(=O)Cc2ccc(OC)c(NCC(=O)O)c2)c(OC)c1 [Example 21, 2 ((2-methoxy-5-(((2,4,6-trimethoxyphenethyl)sulfonyl)methyl)phenyl)amino)acetate] | 0.04 µM | 0.15 µM |
| 60 µM | 60 µM |  | COc1ccc(CCNS(=O)(=O)c2ccc(C)cc2)cc1 [Example 22, N-(4-methoxyphenethyl)-4-methylbenzenesulfonamide] |  |  |
| 35 µM | 35 µM |  | COc1ccc(CCNS(=O)(=O)c2ccc(OC)c([N+](=O)[O-])c2)cc1 [Example 23, 4-methoxy-N-(4-methoxyphenethyl)-3-nitrobenzenesulfonamide] |  |  |
| 35 µM | 35 µM |  | COc1cc(OC)c(CCNS(=O)(=O)c2ccc(OC)c([N+](=O)[O-])c2)c(OC)c1 [Example 25, 4-methoxy-3-nitro-N-(2,4,6-trimethoxyphenethyl)benzenesulfonamide] |  |  |
| 0.75 µM | 5 µM |  | COc1cc(OC)c(CCNS(=O)(=O)c2ccc(OC)c(N)c2)c(OC)c1 [Example 26, 3-amino-4-methoxy-N-(2,4,6-trimethoxyphenethyl)benzenesulfonamide] |  |  |
| 75 µM | 75 µM |  | COc1ccc(CCNS(=O)(=O)c2ccc(OC)cc2)cc1 [Example 27, 4-methoxy-N-(4-methoxyphenethyl)benzenesulfonamide] |  |  |
| > 10 µM | > 10 µM |  | COc1ccc(S(=O)(=O)NCCc2c(OC)cc(OC)cc2OC)cc1 [Example 28, 4-methoxy-N-(2,4,6-trimethoxyphenethyl)benzenesulfonamide] |  |  |
| > 10 µM | > 10 µM |  | COc1cc(OC)c(CCNS(=O)(=O)c2ccc(C)cc2)c(OC)c1 [Example 29, 4-methyl-N-(2,4,6-trimethoxyphenethyl)benzenesulfonamide] |  |  |
| 5 µM | 15 µM |  | COc1ccc(C(=O)NCCc2c(OC)cc(OC)cc2OC)cc1 [Example 30, 4-methoxy-N-(2,4,6-trimethoxyphenethyl)benzamide] |  |  |
| 100 µM | 75 µM |  | COc1ccc(CCNC(=O)c2ccc(OC)cc2)cc1 [Example 31, 4-methoxy-N-(4-methoxyphenethyl)benzamide] |  |  |
| 75 µM | 75 µM |  | COc1ccc(CCNC(=O)c2ccc(OC)c([N+](=O)[O-])c2)cc1 [Example 32, 4-methoxy-N-(4-methoxyphenethyl)-3-nitrobenzamide] |  |  |
| 75 µM | 75 µM |  | COc1ccc(CCNC(=O)c2ccc(OC)c(N)c2)cc1 [Example 33, 3-amino-4-methoxy-N-(4-methoxyphenethyl)benzamide] |  |  |
| 75 µM | 75 µM |  | COc1cc(OC)c(CCNC(=O)c2ccc(OC)c([N+](=O)[O-])c2)c(OC)c1 [Example 34, 4-methoxy-3-nitro-N-(2,4,6-trimethoxyphenethyl)benzamide] |  |  |
| 0.5 µM | 5 µM |  | COc1cc(OC)c(CCNC(=O)c2ccc(OC)c(N)c2)c(OC)c1 [Example 35, 3-amino-4-methoxy-N-(2,4,6-trimethoxyphenethyl)benzamide] |  |  |
| 2.5 µM | 15 µM |  | COc1ccc(CCS(=O)(=O)Nc2c(OC)cc(OC)cc2OC)cc1 [Example 36, 2-(4-methoxyphenyl)-N-(2,4,6-trimethoxyphenyl)ethanesulfonamide] |  |  |
| 5 µM | 15 µM |  | COc1cc(CSCCc2ccc(OC)c(OC)c2)ccc1O [Example 37, 4-(((3,4-dimethoxyphenethyl)thio)methyl)-2-methoxyphenol] |  |  |
| > 10 µM | > 10 µM |  | COc1cc(CS(=O)(=O)CCc2ccc(OC)c(OC)c2)ccc1O [Example 38, 4-(((3,4-dimethoxyphenethyl)sulfonyl)methyl)-2-methoxyphenol] |  |  |

| SMILES | IC50 [1] | IC50 [2, 3] | melting point | IC50 ([1]; K562, 96 h) | IC50 ([2]; DU-145, 96 h, compound in DMSO 0.01 μM to 100 μM) |
| --- | --- | --- | --- | --- | --- |
| COc1cc(OC)c(CCS(=O)(=O)Cc2ccc(OC)c(NCC(=O)O)c2)c(OC)c1 [Example 4] | 0.5 µM | 0.25 µM | 146 to 150 °C |  |  |
